Reference: patent publication US10597388B2, “Pyridazinone herbicides” (FMC CORPORATION, priority 2014, dated 2020)

Assays:
Experiment in all cases: Test D controlled growth environment herbicide test, pre- and postemergence
Assay type in all cases: in vivo
kochia (Kochia scoparia) = test system: kochia (Kochia scoparia)
Outline: (§1)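 Rating is visual, 0–100 scale (100 = complete control), made against untreated plants 14–21 d after treatment in controlled growth conditions. Postemergence sprays went onto 1- to 4-leaf plants in peat medium; preemergence sprays onto silt loam after sowing; formulation included a surfactant.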

[1] = test system: wheat, winter (winter wheat, Triticum aestivum)
Outline: as §1

[2] = test system: wheat, spring (spring wheat, Triticum aestivum)
Outline: as §1

[3] = test system: field violet (Viola arvensis); conditions: Preemergence
Outline: as §1

[4] = test system: canarygrass (Phalaris minor)
Outline: as §1

[5] = test system: buckwheat, wild (wild buckwheat, Polygonum convolvulus)
Outline: as §1

[6] = test system: chickweed (common chickweed, Stellaria media)
Outline: as §1

[7] = test system: oat, wild (wild oat, Avena fatua)
Outline: as §1

[8] = test system: oilseed rape (Brassica napus)
Outline: as §1

[9] = test system: pigweed (Amaranthus retroflexus)
Outline: as §1

[10] = test system: galium (catchweed bedstraw, Galium aparine)
Outline: as §1

[11] = test system: barley, spring (spring barley, Hordeum vulgare)
Outline: as §1

[12] = Postemergence, 31 g ai/ha, scale 0 to 100 (0 no effect, 100 complete control)
[13] = Postemergence, 125 g ai/ha, visual rating on scale 0 (no effect) to 100 (complete control), 14 to 21 d
[14] = Postemergence, 250 g ai/ha, scale 0 to 100 (0 no effect, 100 complete control)
[15] = Preemergence, 62 g ai/ha, scale 0 to 100 (0 no effect, 100 complete control)
[16] = Preemergence, 125 g ai/ha, scale 0 to 100 (0 no effect, 100 complete control)
[17] = Preemergence, 250 g ai/ha, scale 0 to 100, 0 no effect, 100 complete control
[18] = postemergence, 62 g ai/ha, scale 0 to 100, 0 no effect, 100 complete control

SMILES: CCc1sc2ccc(C)cc2c1-c1c(O)c(C)nn(C)c1=O [Compound 47]
- Kochia plant response rating (kochia (Kochia scoparia); [12]): 45
- Plant response rating, Kochia (kochia (Kochia scoparia); [13]): 95
- Plant response rating, Kochia (kochia (Kochia scoparia); [14]): 100
- Plant response rating (scale of 0 to 100), Kochia (kochia (Kochia scoparia); Preemergence, 31 g ai/ha): 10
- Plant response rating, Kochia (kochia (Kochia scoparia); [15]): 10
- Plant response rating, Kochia (kochia (Kochia scoparia); [16]): 35
- Plant response rating, Kochia (kochia (Kochia scoparia); [17]): 40
- Plant response rating, Kochia (kochia (Kochia scoparia); [18]): 70
- Wheat, Winter plant response rating [1, 12]: 5
- Plant response rating, Wheat, Winter [1, 13]: 10
- Plant response rating, Wheat, Winter [1, 14]: 5
- Plant response rating (scale of 0 to 100), Wheat, Winter ([1]; Preemergence, 31 g ai/ha): 5
- Plant response rating, Wheat, Winter [1, 15]: 5
- Plant response rating, Wheat, Winter [1, 16]: 10
- Plant response rating, Wheat, Winter [1, 17]: 10
- Plant response rating, Wheat, Winter [1, 18]: 5
- Wheat, Spring plant response rating [2, 12]: 10
- Plant response rating, Wheat, Spring [2, 13]: 15
- Plant response rating, Wheat, Spring [2, 14]: 15
- Plant response rating (scale of 0 to 100), Wheat, Spring ([2]; Preemergence, 31 g ai/ha): 5
- Plant response rating, Wheat, Spring [2, 15]: 5
- Plant response rating, Wheat, Spring [2, 16]: 15
- Plant response rating, Wheat, Spring [2, 17]: 15
- Plant response rating, Wheat, Spring [2, 18]: 10
- Plant response rating (scale of 0 to 100), Field Violet ([3]; 31 g ai/ha): 95
- Plant response rating, Field Violet ([3]; 62 g ai/ha, scale 0 to 100 (0 no effect, 100 complete control)): 100
- Plant response rating, Field Violet ([3]; 125 g ai/ha, scale 0 to 100 (0 no effect, 100 complete control)): 100
- Plant response rating, Field Violet ([3]; 250 g ai/ha, scale 0 to 100, 0 no effect, 100 complete control): 100
- Canarygrass plant response rating [4, 12]: 0
- Plant response rating, Canarygrass [4, 13]: 0
- Plant response rating, Canarygrass [4, 14]: 0
- Plant response rating (scale of 0 to 100), Canarygrass ([4]; Preemergence, 31 g ai/ha): 0
- Plant response rating, Canarygrass [4, 15]: 0
- Plant response rating, Canarygrass [4, 16]: 0
- Plant response rating, Canarygrass [4, 17]: 5
- Plant response rating, Canarygrass [4, 18]: 0
- Buckwheat, Wild plant response rating [5, 12]: 60
- Plant response rating, Buckwheat, Wild [5, 13]: 90
- Plant response rating, Buckwheat, Wild [5, 14]: 100
- Plant response rating (scale of 0 to 100), Buckwheat, Wild ([5]; Preemergence, 31 g ai/ha): 70
- Plant response rating, Buckwheat, Wild [5, 15]: 60
- Plant response rating, Buckwheat, Wild [5, 16]: 70
- Plant response rating, Buckwheat, Wild [5, 17]: 85
- Plant response rating, Buckwheat, Wild [5, 18]: 75
- Chickweed plant response rating [6, 12]: 90
- Plant response rating, Chickweed [6, 13]: 95
- Plant response rating, Chickweed [6, 14]: 100
- Plant response rating (scale of 0 to 100), Chickweed ([6]; Preemergence, 31 g ai/ha): 90
- Plant response rating, Chickweed [6, 15]: 95
- Plant response rating, Chickweed [6, 16]: 100
- Plant response rating, Chickweed [6, 17]: 90
- Plant response rating, Chickweed [6, 18]: 95
- Oat, Wild plant response rating [7, 12]: 10
- Plant response rating, Oat, Wild [7, 13]: 20
- Plant response rating, Oat, Wild [7, 14]: 40
- Plant response rating (scale of 0 to 100), Oat, Wild ([7]; Preemergence, 31 g ai/ha): 10
- Plant response rating, Oat, Wild [7, 15]: 20
- Plant response rating, Oat, Wild [7, 16]: 35
- Plant response rating, Oat, Wild [7, 17]: 40
- Plant response rating, Oat, Wild [7, 18]: 15
- Oilseed Rape plant response rating [8, 12]: 20
- Plant response rating, Oilseed Rape [8, 13]: 55
- Plant response rating, Oilseed Rape [8, 14]: 70
- Plant response rating (scale of 0 to 100), Oilseed Rape ([8]; Preemergence, 31 g ai/ha): 0
- Plant response rating, Oilseed Rape [8, 15]: 0
- Plant response rating, Oilseed Rape [8, 16]: 10
- Plant response rating, Oilseed Rape [8, 17]: 15
- Plant response rating, Oilseed Rape [8, 18]: 20
- Pigweed plant response rating [9, 12]: 75
- Plant response rating, Pigweed [9, 13]: 100
- Plant response rating, Pigweed [9, 14]: 100
- Plant response rating (scale of 0 to 100), Pigweed ([9]; Preemergence, 31 g ai/ha): 70
- Plant response rating, Pigweed [9, 15]: 100
- Plant response rating, Pigweed [9, 16]: 100
- Plant response rating, Pigweed [9, 17]: 100
- Plant response rating, Pigweed [9, 18]: 75
- Galium plant response rating [10, 12]: 65
- Plant response rating, Galium [10, 13]: 75
- Plant response rating, Galium [10, 14]: 80
- Plant response rating (scale of 0 to 100), Galium ([10]; Preemergence, 31 g ai/ha): 85
- Plant response rating, Galium [10, 15]: 95
- Plant response rating, Galium [10, 16]: 100
- Plant response rating, Galium [10, 17]: 100
- Plant response rating, Galium [10, 18]: 75
- Barley, Spring plant response rating [11, 12]: 0
- Plant response rating, Barley, Spring [11, 13]: 0
- Plant response rating, Barley, Spring [11, 14]: 0
- Plant response rating (scale of 0 to 100), Barley, Spring ([11]; Preemergence, 31 g ai/ha): 0
- Plant response rating, Barley, Spring [11, 15]: 5
- Plant response rating, Barley, Spring [11, 16]: 15
- Barley, Spring plant response rating [11, 17]: 15
- Plant response rating, Barley, Spring [11, 18]: 0
